# The source made the active and inactive calls.
# Legend:
# [1] = general mammalian cell viability loss – activator set, cherry-pick, cytotoxicity control for miR-122 modulator project, dose response (AID 720690); type: functional, cell-based;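 note: HEK293T human cells scored for general mammalian cytotoxicity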
# [2] = Luminescence Cell-Based Dose Response HTS to Identify Inhibitors of 5'UTR Stem-Loop Driven Prion Protein mRNA Translation in H4 Neuroglioblastoma Cells. [Related pubchem assays: 1827 (Project Summary), 1813 (Primary HTS)]; type: functional
# [3] = molecular target: T1, Oxysterols receptor LXR-beta (Homo sapiens, UniProt P55055); type: functional, cell-based
# T1 sequence (P55055 whole entry): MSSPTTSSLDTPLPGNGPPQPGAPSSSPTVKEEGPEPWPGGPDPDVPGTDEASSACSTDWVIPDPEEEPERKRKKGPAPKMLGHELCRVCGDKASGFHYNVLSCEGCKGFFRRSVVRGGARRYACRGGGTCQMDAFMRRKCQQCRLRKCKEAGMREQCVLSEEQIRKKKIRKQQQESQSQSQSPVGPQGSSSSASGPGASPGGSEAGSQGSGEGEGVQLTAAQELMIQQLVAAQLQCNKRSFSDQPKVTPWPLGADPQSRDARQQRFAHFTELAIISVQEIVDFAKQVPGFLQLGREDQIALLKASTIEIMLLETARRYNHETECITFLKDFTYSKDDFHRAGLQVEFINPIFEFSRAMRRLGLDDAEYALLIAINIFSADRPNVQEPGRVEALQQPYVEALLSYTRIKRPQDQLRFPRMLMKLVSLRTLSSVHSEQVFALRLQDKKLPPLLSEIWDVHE
# [4] = molecular target: T1, Oxysterols receptor LXR-beta; type: functional, cell-based; remark: listed apart in the source
# cells [5] = test: cells
# Major prion protein = Major prion protein (Homo sapiens, UniProt P04156); type: functional, cell-based
# cells [6] = test: cells; remark: listed apart in the source
# Paired box protein Pax-8 = Paired box protein Pax-8 (Homo sapiens, UniProt Q06710); test: PAX8 transcriptional activity inhibition in RMG-I – RMG-I cells, luciferase, cherry-pick, dose response (AID 687027); type: functional, cell-based;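 note: luciferase reporter driven by Pax8 target thyroperoxidase promoter measured by SteadyGlo luminescence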
# [7] = IGROV1 cell killing – plate reader, dry powder samples, PAX8 inhibitor project, dose response (AID 743043); type: functional, cell-based; conditions: IGROV-1
# [8] = general cell-killing toxicity readout – plate reader, dry powder samples, cytotoxicity control for PAX8 inhibitor project, dose response (AID 743021); type: functional, cell-based
# [9] = OVCAR8 cell viability loss – plate reader, dry powder samples, PAX8 project, dose response (AID 743197); type: functional, cell-based; conditions: OVCAR-8
# [10] = Luminescence-based cell-based high throughput dose response assay to identify activators of the DAF-12 from the parasite S. stercoralis (ssDAF-12).; type: functional
# [11] = molecular target: T1, Oxysterols receptor LXR-beta; test: LXR agonists, Gal4 luciferase reporter, dose response, counter-screen for ssDAF-12 agonist project, cell-based, luminescence, HEK293, S. stercoralis campaign (AID 720737); type: functional; conditions: read-out: IC50 (the source's name)
# fMet-Leu-Phe receptor = fMet-Leu-Phe receptor (Homo sapiens, UniProt P21462); test: formyl peptide receptor binders – dose response (AID 519); type: functional
# [12] = molecular target: Bifunctional protein GlmU (Mycobacterium tuberculosis, UniProt P9WMN3); test: Inhibitors of Mycobacterial Glucosamine-1-phosphate acetyl transferase (GlmU). Secondary screen.; design: species or system Mycobacterium tuberculosis H37Rv
# [13] = molecular target: T2, RNA-binding protein pos-1 (Caenorhabditis elegans, UniProt G5EF15); test: disruptors of C. elegans POS-1 RNA interaction – biochemical, fluorescence polarization, dose response (AID 1964);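 note: purified POS-1 fused to maltose binding protein made in E. coli; potency of compounds blocking POS-1 binding to fluorescent RNA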
# T2 sequence (G5EF15 whole entry): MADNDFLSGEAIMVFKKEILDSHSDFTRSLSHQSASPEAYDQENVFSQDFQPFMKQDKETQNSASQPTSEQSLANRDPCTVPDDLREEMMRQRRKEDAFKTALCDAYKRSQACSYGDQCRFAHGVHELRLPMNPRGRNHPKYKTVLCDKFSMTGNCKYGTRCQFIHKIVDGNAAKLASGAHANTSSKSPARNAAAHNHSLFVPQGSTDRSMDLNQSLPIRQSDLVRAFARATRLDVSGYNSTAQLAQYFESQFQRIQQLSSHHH
# [14] = molecular target: T3, Zinc finger protein mex-5 (Caenorhabditis elegans, UniProt Q9XUB2); test: potency of MEX-5 RNA-binding blockers – biochemical, C. elegans, fluorescence polarization, dose response (AID 1960)
# T3 sequence (Q9XUB2 whole entry): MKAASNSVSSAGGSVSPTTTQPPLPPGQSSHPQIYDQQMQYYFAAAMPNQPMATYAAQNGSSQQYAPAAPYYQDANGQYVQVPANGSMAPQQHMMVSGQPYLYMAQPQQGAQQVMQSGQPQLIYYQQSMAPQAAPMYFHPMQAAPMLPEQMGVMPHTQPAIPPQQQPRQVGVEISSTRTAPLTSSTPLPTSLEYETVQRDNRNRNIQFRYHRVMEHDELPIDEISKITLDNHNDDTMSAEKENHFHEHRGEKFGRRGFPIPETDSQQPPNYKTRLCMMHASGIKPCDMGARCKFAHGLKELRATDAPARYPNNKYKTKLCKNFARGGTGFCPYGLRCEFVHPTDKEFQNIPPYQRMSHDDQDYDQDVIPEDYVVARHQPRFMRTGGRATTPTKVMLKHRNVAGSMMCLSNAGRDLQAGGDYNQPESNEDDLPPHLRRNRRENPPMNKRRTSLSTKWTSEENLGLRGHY
structure (smiles),measurement,setting,value
C[C@H]1CN([C@@H](C)CO)S(=O)(=O)c2ccc(C#CC3CCCCC3)cc2O[C@@H]1CN(C)C,AC50,[1],26.4 µM (active)
O=C(N/N=C/c1cccs1)c1[nH]nc2c1CCC2,EC50,[2],11 µM (inconclusive)
same,EC50,[3],> 67.5 µM (inactive)
Cc1ccc(CNC2=Nc3ccccc3CS2)cc1,EC50,[4],> 67.5 µM (inactive)
same,EC50,cells [5],> 67.5 µM (inactive)
CCc1nc(SCC(=O)OC(C)C)c2ccccc2n1,IC50,Major prion protein,2.38 µM (active)
same,IC50,cells [6],> 138 µM (inactive)
Cn1c(SCc2ccccc2F)nc2cccnc21,EC50,[3],> 67.5 µM (inactive)
COc1ccc(NC(=O)N2CC(=O)N3[C@@H](CO)[C@@H](c4ccc(/C=C/c5ccccc5)cc4)[C@@H]3C2)cc1,AC50,Paired box protein Pax-8,5.52 µM (active)
same,AC50,[7],54.8 µM (active)
same,AC50,[8],7.22 µM (active)
same,AC50,[9],39.1 µM (active)
COc1cccc(CC(=O)Nc2ccc3c(c2)c(=O)n(C)n3-c2ccc(C(C)(C)C)cc2)c1,IC50,[10],> 67.6 µM (inactive)
same,EC50,[11],> 67.6 µM (inactive)
COc1ccc(-c2nc(-c3ccc(Br)o3)no2)cc1OC,Ki,fMet-Leu-Phe receptor,> 66.7 µM (inactive)
Cc1ccc(CNC(=O)CCS(=O)(=O)c2ccc(Br)cc2)cc1,IC50,[12],59.1 µM (active)
O=C(O)C(=O)/C(=C\c1ccsc1)c1ccc2ccccc2n1,EC50,[13],27.9 µM (active)
same,EC50,[14],49 µM (active)
same,IC50,[10],> 67.6 µM (inactive)
same,EC50,[11],> 67.6 µM (inactive)

# — ChEMBL document CHEMBL1201862, “PubChem BioAssay data set” (2004)
